Read-outs that look alike come from different tables or passages of the source.
How the values were obtained:
RIVA cells = experiment: Real Time Glo viability assay, Betalutin and cell cycle inhibitors (Example 2); type: cell-based, human; conditions: RIVA; for viability at 0.1 µM / viability at 1 µM: Homo sapiens, read-out: Growth inhibition (signal treated/control; 1 = no change)
Description: (§1) Cells were split twice a week 1:3-1:5 depending on cell density. […] Real Time Glo was purchased from Promega. 384 well plates were purchased from Greiner Bio-One.
(§2) Cells were treated for 18-20 h with Betalutin at a final concentration of 1 μg/ml and 2 μg/ml in 6-well cell culture plates with shaking. After treatment, PBS was added to the cells, and the cells pelleted. Cells were first resuspended in 1 ml PBS, then washed twice in PBS and finally diluted in growth medium at the desired concentration. All cell lines were treated at a cell concentration of 2.5*10^6 cells/ml.
(§3) Regardless of cell number the culturing volume was 25 μl. For Real Time Glo, the Cell Viability Substrate and NanoLuc® Enzyme were diluted 1:500 in growth medium, and 25 μL of diluted reagents added to each well. All reagents were equilibrated to 37° C. Cells were incubated with the reaction mix for 1 h at 37° C. before the first measurement of luminescence. Measurements were repeated as often as required within 72 h after adding the reagents. Digitonin was added to cells at 200 μg/ml to record background luminescence of dead cells. A Tecan SPARK 10M plate reader was used to measure luminescence, with an integration time set to 1 sec.
(§4) Growth inhibition was calculated by dividing the luminescence signal of the treated cells by the luminescence signal of the control cells for each day of measurement after start of treatment [Table 1].
(§5) To evaluate effects of the drugs alone [(−)Betalutin] and their combination with Betalutin [(+)Betalutin], we calculated the Z-score for each sample (ZdrugX=1-(+)BetalutindrugX/(−)BetalutindrugX), where (+)BetalutindrugX and (−) BetalutindrugX are the measured luminescence intensity values for drug X in presence and absence of Betalutin, respectively. The calculation of Z-score values separately for each plate enabled comparison of results across plates, despite variations between the plates in overall signal intensity.

U2932 cells = experiment: as above; type: cell-based, human; conditions: for viability at 0.1 µM / viability at 1 µM: Homo sapiens, read-out: Growth inhibition (signal treated/control; 1 = no change); for viability at 0.1 µM: U2932, U2932, drug 100 nM; for viability at 1 µM: U2932, U2932, drug 1 μM
Description: as §1, §2, §3, §4, §5

Ramos tumor xenografts = experiment: Treatment of mice with tumor xenografts; type: in vivo, athymic mice; conditions: Ramos xenograft
Description: Each treatment group included 6-9 mice.

OCI-Ly8 tumor xenografts = experiment: Treatment of mice with tumor xenografts

Molecule	viability at 0.1 µM (RIVA cells; drug 100 nM, +Betalutin, Dy3) [%]	viability at 0.1 µM (RIVA cells; drug 100 nM, +Betalutin, Dy4) [%]	viability at 0.1 µM (RIVA cells; drug 100 nM, +Betalutin, Dy5) [%]	viability at 0.1 µM (RIVA cells; drug 100 nM, +Betalutin, Dy6) [%]	viability at 0.1 µM (RIVA cells; drug 100 nM, −Betalutin, Dy3) [%]	viability at 0.1 µM (RIVA cells; drug 100 nM, −Betalutin, Dy4) [%]	viability at 0.1 µM (RIVA cells; drug 100 nM, −Betalutin, Dy5) [%]	viability at 0.1 µM (RIVA cells; drug 100 nM, −Betalutin, Dy6) [%]	viability at 1 µM (RIVA cells; drug 1 μM, +Betalutin, Dy3) [%]	viability at 1 µM (RIVA cells; drug 1 μM, +Betalutin, Dy4) [%]	viability at 1 µM (RIVA cells; drug 1 μM, +Betalutin, Dy5) [%]	viability at 1 µM (RIVA cells; drug 1 μM, +Betalutin, Dy6) [%]	viability at 1 µM (RIVA cells; drug 1 μM, −Betalutin, Dy3) [%]	viability at 1 µM (RIVA cells; drug 1 μM, −Betalutin, Dy4) [%]	viability at 1 µM (RIVA cells; drug 1 μM, −Betalutin, Dy5) [%]	viability at 1 µM (RIVA cells; drug 1 μM, −Betalutin, Dy6) [%]	viability at 0.1 µM (U2932 cells; (+)Betalutin, Dy3) [%]	viability at 0.1 µM (U2932 cells; (+)Betalutin, Dy4) [%]	viability at 0.1 µM (U2932 cells; (+)Betalutin, Dy5) [%]	viability at 0.1 µM (U2932 cells; (+)Betalutin, Dy6) [%]	further results
Nc1nc(Nc2ccc(S(N)(=O)=O)cc2)nn1C(=O)c1c(F)cccc1F [JNJ-7706621]	13	8	4	4	89	82	99	89	29	13	4	3	50	31	17	14	83	82	73	72	Synergy for the combination with Betalutin (RIVA cells; drug 100 nM): Bliss + Z-score; Synergy for the combination with Betalutin (RIVA cells; drug 1 μM): Z-score; viability at 0.1 µM (U2932 cells; (−)Betalutin, Dy3): 90%; viability at 0.1 µM (U2932 cells; (−)Betalutin, Dy4): 91%; viability at 0.1 µM (U2932 cells; (−)Betalutin, Dy5): 107%; viability at 0.1 µM (U2932 cells; (−)Betalutin, Dy6): 116%; viability at 1 µM (U2932 cells; (+)Betalutin, Dy3): 39%; viability at 1 µM (U2932 cells; (+)Betalutin, Dy4): 26%; viability at 1 µM (U2932 cells; (+)Betalutin, Dy5): 16%; viability at 1 µM (U2932 cells; (+)Betalutin, Dy6): 11%; viability at 1 µM (U2932 cells; (−)Betalutin, Dy3): 53%; viability at 1 µM (U2932 cells; (−)Betalutin, Dy4): 36%; viability at 1 µM (U2932 cells; (−)Betalutin, Dy5): 25%; viability at 1 µM (U2932 cells; (−)Betalutin, Dy6): 20%; Synergy for the combination with Betalutin (U2932 cells; U2932, drug 100 nM): Bliss
C=CCn1c(=O)c2cnc(Nc3ccc(N4CCN(C)CC4)cc3)nc2n1-c1cccc(C(C)(C)O)n1 [MK-1775]	49	38	24	23	100	89	94	94	2	1	1	1	8	4	2	1	120	95	85	71	viability at 0.1 µM (U2932 cells; (−)Betalutin, Dy3): 100%; viability at 0.1 µM (U2932 cells; (−)Betalutin, Dy4): 90%; viability at 0.1 µM (U2932 cells; (−)Betalutin, Dy5): 92%; viability at 0.1 µM (U2932 cells; (−)Betalutin, Dy6): 103%; viability at 1 µM (U2932 cells; (+)Betalutin, Dy3): 104%; viability at 1 µM (U2932 cells; (+)Betalutin, Dy4): 94%; viability at 1 µM (U2932 cells; (+)Betalutin, Dy5): 89%; viability at 1 µM (U2932 cells; (+)Betalutin, Dy6): 80%; viability at 1 µM (U2932 cells; (−)Betalutin, Dy3): 86%; viability at 1 µM (U2932 cells; (−)Betalutin, Dy4): 89%; viability at 1 µM (U2932 cells; (−)Betalutin, Dy5): 96%; viability at 1 µM (U2932 cells; (−)Betalutin, Dy6): 115%; Median survival (Ramos tumor xenografts; 250 MBq/kg ^177Lu-lilotomab + 30 mg/kg MK-1775 twice a day, day 1 to 5): 47 days; Tumor growth versus 250 MBq/kg ^177Lu-lilotomab alone (Ramos tumor xenografts; 250 MBq/kg ^177Lu-lilotomab + MK-1775, p=0.001): significantly delayed tumor growth; Tumor growth delay versus ^177Lu-lilotomab alone (OCI-Ly8 tumor xenografts; 250 MBq/kg ^177Lu-lilotomab + MK-1775, p=0.05): significantly better; Efficacy of combination versus 500 MBq/kg ^177Lu-lilotomab alone (OCI-Ly8 tumor xenografts; 250 MBq/kg ^177Lu-lilotomab + MK-1775, p=0.7070): as efficient as 500 MBq/kg; Therapeutic efficacy compared with control (OCI-Ly8 tumor xenografts; single agent): no therapeutic efficacy
Lutetium-177 [^177Lu]-lilotomab satetraxetan (conjugate, chains of the INN, looked up, 177Lu satetraxetan chelator conjugate) VH: EIQLQQSGPELVKPGASVKVSCKASGYSFTDYNMYWVKQSHGKSLEWIGYIDPYNGDTTYNQKFKGKATLTVDKSSSTAFIHLNSLTSEDSAVYYCARSPYGHYAMDYWGQGTSVTVSS VL: DIVMTQSHKLLSTSVGDRVSITCKASQDVSTAVDWYQQKPGQSPKLLINWASTRHTGVPDRFTGSGSGTDYTLTISSMQAEDLALYYCRQHYSTPFTFGSGTKLEIK																					Median survival (Ramos tumor xenografts; 250 MBq/kg ^177Lu-lilotomab alone): 40 days; Median survival (OCI-Ly8 tumor xenografts; 250 MBq/kg, p=0.0062): significantly improved; Tumor growth delay (OCI-Ly8 tumor xenografts; 250 MBq/kg, p=0.015): significantly improved
